3 compounds from US4870187A, “Antihypercholesterolemic tetrazol-1-yl compounds” (Bristol-Myers Company, priority 1988, dated 1989) can be followed below.

The target of assay [1] is T1, rat liver HMG-CoA reductase (Rattus norvegicus, UniProt P51639).
T1 construct: from tissue; host or cells: rat liver microsomes
T1 sequence (P51639 1-887): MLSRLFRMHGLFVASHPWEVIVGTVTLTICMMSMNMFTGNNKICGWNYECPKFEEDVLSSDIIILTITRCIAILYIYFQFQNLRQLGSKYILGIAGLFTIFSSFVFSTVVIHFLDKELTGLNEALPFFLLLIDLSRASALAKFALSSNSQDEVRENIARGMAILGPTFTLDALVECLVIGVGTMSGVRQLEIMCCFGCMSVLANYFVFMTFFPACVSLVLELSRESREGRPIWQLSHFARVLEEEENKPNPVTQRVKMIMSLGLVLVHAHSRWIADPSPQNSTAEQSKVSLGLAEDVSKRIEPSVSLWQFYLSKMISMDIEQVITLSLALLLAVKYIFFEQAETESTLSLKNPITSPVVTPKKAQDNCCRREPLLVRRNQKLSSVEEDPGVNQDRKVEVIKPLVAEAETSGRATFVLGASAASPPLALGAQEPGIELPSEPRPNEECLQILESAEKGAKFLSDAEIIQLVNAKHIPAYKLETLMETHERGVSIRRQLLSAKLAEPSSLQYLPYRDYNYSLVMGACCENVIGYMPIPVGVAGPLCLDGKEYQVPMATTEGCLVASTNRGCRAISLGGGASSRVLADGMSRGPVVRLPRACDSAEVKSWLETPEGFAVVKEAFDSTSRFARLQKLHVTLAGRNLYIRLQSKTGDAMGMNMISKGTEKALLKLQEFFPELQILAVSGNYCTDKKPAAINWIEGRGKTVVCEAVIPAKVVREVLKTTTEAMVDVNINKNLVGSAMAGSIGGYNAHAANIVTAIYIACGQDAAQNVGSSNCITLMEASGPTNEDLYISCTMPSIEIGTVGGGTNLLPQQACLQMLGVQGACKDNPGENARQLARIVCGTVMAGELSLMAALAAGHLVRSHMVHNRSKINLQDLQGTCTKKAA
Briefly: Test A: In Vitro Inhibition of Microsomal HMG-CoA Reductase. It is filed as biochemical. As to conditions: rat liver microsomes; 0.33 mM d,1-[3-14C]-HMG-CoA, 3.0 mM NADPH, pH 7.2. Here is the method:
The intact, fully activated microsomal form of rat liver HMG-CoA reductase (subunit MW ca 100,000 daltons) was prepared as described by Parker, et al., Biochem. Biophys. Res. Commun., 125, 629-635 (1984), and used as the source of enzyme for assays. HMG-CoA reductase activity was determined essentially by the method of Shapiro, et al., Biochem. Biophys. Acta., 370, 369-377 (1974), with modifications as described by Ingebritsen and Gibson, Meth. Enzymol. 71, 486-497 (1981) with the exception that the internal standard ^3 H-mevalonolactone is added after termination of the assay. […]
To measure reductase inhibition, test compounds dissolved in water or dimethylsulfoxide and diluted in buffer A (50 mM imidazole-HCl, 250 mM NaCl, 1 mM EDTA, 1 mM EGTA, 5 mM DTT, 20 μM leupeptin, pH=7.2) were incubated with aliquots of microsomes (80-160 μg protein in buffer A) followed by addition of d,1-[3-^14 C]-HMG-CoA (0.33 mM, 2.0 dpm/picomole) and NADPH (3.0 mM). The 50 percent inhibitory concentration (IC50) for each compound in Table 1 was calculated from the linear regression line of the percent decrease (from control) in enzyme activity vs. log concentration of inhibitor, determined using at least 4 dilutions of each test compound assayed in duplicate.

Assay [2] concerns Isolated Hepatocyte Cholesterol Biosynthesis. Briefly: Test B: Isolated Hepatocyte Cholesterol Biosynthesis Assay. It is filed as cell-based, male Wistar rats. As to conditions: rat hepatocytes, 10 min preincubation, 60 min incubation at 37°, pH 7.35, read-out: IC50, Inhibition of Isolated Hepatocyte Cholesterol Biosynthesis. On the procedure: Intact parenchymal hepatocytes were isolated from male Wistar rats (180-280 g) fed cholestyramine containing or normal diet, using the collagenase perfusion method essentially as described by Seglen, in Methods in Cell Biology (D. Prescott, ed.) Vol. 13, pp. 29-83, Academic Press, New York (1976). Cell preparations were used only when viability (trypan blue exclusion) exceeded 90%. Cholesterol biosynthesis was determined as the incorporation by hepatocytes of ^3 H from [^3 H]-water into total (cellular plus medium) 3β-hydroxy sterols as per Ingebritsen, et al., J. Biol. Chem., 254, 9986-9989 (1979). Hepatocyte sterols and lipids were isolated by a modification of the methods described by Kates, in Techniques in Lipidology, (M. Kates, ed.), pp. 349, 360-363, North Holland Publ. Co., Amsterdam, 1972. To isolate sterols, cells are extracted with methanol:chloroform:water (2:1:0.8), the chloroform phase is separated and extracted with benzene to remove traces of water, then dried under nitrogen. The residue is saponified at 75° C. with 0.30N NaOH in methanol:water (9:1). The alkaline mixture is then extracted three times with petroleum ether to yield the non-saponifiable lipids which include the free as well as initially esterified cholesterol. The extract is dried under nitrogen in the presence of carrier cholesterol (0.1 mg) and 10% benzene, and the residue is dissolved in acetone:ethanol (1:1). Finally, the 3β-hydroxysterols are precipitated with an excess of digitonin, the precipitate is washed in acetone, dried under nitrogen, and dissolved in toluene:methanol (1:1). The ^3 H-labelled sterols are quantified by liquid scintillation and corrected for counting efficiency. In some tests ^14 C-cholesterol was added to initial extractions as an index of recovery, which averaged 80±3%. […]

Structures can show the parent of a compound that is named as a salt.

Regarding `O=C(O)CC(O)CC(O)/C=C/C(=C(c1ccc(F)cc1)c1ccc(F)cc1)n1cnnn1` (centres unmarked) [Example 28, 9,9-Bis(4-fluorophenyl)-3,5-dihydroxy-8-(1H-tetrazol-1-yl)-6,8-nonadienoic acid, sodium salt], the IC50 – broadly, the concentration that gives 50% inhibition – in assay [1] was 120 nM; in assay [2], 20 nM.
As for `CC[C@H](C)C(=O)O[C@H]1C[C@@H](C)C=C2C=C[C@H](C)[C@H](CC[C@@H]3C[C@@H](O)CC(=O)O3)[C@H]21` [Mevinolin (Lovastatin), Mevinolin, reference compound], the IC50 in assay [2] was found to be 46 ± 26 nM.
Consider `Cc1nnnn1C(/C=C/C(O)CC(O)CC(=O)O)=C(c1ccc(F)cc1)c1ccc(F)cc1` (centres unmarked) [Example 20], for which the IC50 in assay [1] came out at 750 nM; in assay [2], 100 nM.
